Each structure is given as a SMILES string. Entries after “also recorded” stand apart in the source; their conditions may differ. Where two headings read alike, the source gives them in different places.

The source of these data is patent US20210052561A1, “TARGETING ASPARTATE BETA-HYDROXYLASE SUPPRESSES TUMOR MALIGNANCY AND METASTASIS” (Rhode Island Hospital, priority 2019, published 2021).

Series [1] relates to intrahepatic CCA tumors from BDE-Neu-CL24 cells. Nature of the series: rat intrahepatic syngeneic CCA metastasis model. The note with it: for CCA metastatic spread to the lung (metastatic nodules): rat, 10 mg/kg oral capsule daily for 18 days, versus control capsule, p=0.041, 10 mg/kg. The class given is in vivo. On the procedure:
Rats received 10 mg/kg (body weight) of the ASPH inhibitor daily for 18 days and sacrificed at day 21 post-surgery
The statistical analysis was performed using the Mann-Whitney U test. *, p<0.05 versus control.
The compound 55 (25 mg/kg) was given by i.p injection, and 10 mg/kg of compound 14c via i.p. injection 3 times per week. N=8-10 in each group.
(§1) The intrahepatic CCA metastatic models weremetastasis model was established with BDE-Neu-CL24 cells. Rats were anesthetized with isoflurane, the abdomen was opened, and the liver inoculated with 3×10^6 BDE-Neu-CL24 cells. The bile duct was then ligated following administration of 0.03 mg/kg of buprenorphine prior to surgery, and four hours after surgery, and the following morning for analgesia as needed. The rats were monitored daily and evaluated for weight change, body condition, and signs of ascites. The oral formulated compound 14c were prepared in capsules at a dose of 10 mg/kg and administered with an oral syringe. The rats were euthanized 18 days post-surgery with Isoflurane and cervical dislocation. Tumors were dissected away from the adjacent liver and weighed. All lung tissues were immersed in Bouin's fixative solution and the metastatic nodules on the surface of the lungs were counted.
Statistical analyses of two groups were done by Student's t-test unless otherwise stated. Equality of variance was examined using F-test. Mann-Whitney U test was used to assess the significance between the two groups with respect to the numbers of metastatic nodules in the rat lung by using the software “R”.
To evaluate whether compound 14c suppresses CCA metastasis in vivo, we performed experiments in a rat intrahepatic syngeneic CCA model by ligating the bile duct and inoculating rat BDE-neu-CL24 cells into the liver. We first determined that compound 14c inhibited BDE-neu-CL24 cells in vitro (FIG. 4A). The intrahepatic rat model was established and the rats challenged with a control capsule or a capsule containing compound 14c (10 mg/kg, FIG. 4B) orally and daily for 18 days, and animals were sacrificed on day 21 (FIG. 4C). The body weights were measured as a gross indicator of drug toxicity and were not affected compared to vehicle control (FIG. 7). The metastatic spread to the lung surface was determined (FIG. 4D).

A further series deals with BDE-neu-CL24 cells. Nature of the series: cell migration assay, rat BDE-neu CL24 CCA cells. The note with it: 10 μM, versus DMSO. The format is cell-based. On the procedure:
(§2) Human cholangiocarcinoma cell lines, HuCCT1, RBE, and SSP25 were purchased from the RIKEN cell line bank. They were cultured in RPMI-1640 medium supplemented with 10% (v/v) fetal bovine serum, 2 mM of L-glutamine, and penicillin/streptomycin. A BDE-Neu cell line and BDE-Neu CL24 were cultured in Dulbecco's modified Eagle's medium supplemented with 10% (v/v) fetal bovine serum, 2 mM of L-glutamine, and penicillin/streptomycin. Plasmids pLKO.1-shRNA-luciferase (shLuc) and pLKO.1-shRNA-ASPH (shASPH) were purchased from Sigma-Aldrich (St. Louis, Mo.).
(§3) The cell migration assay was performed using transwell chambers (pore size: 8 μm, Corning 3422) coated with Matrigel® (Corning 354480). The cell invasion assay was performed by using transwell chambers coated with Matrigel® (Corning 354480) as previously described. In brief, 10^5 cells in 200 μl of serum-free medium were plated in the top chamber and 600 μl of culture medium containing 10% fetal bovine serum was preparedapplied in the lower chamber to stimulate cell for migration. Cells were incubated for 24 hours, fixed with methanol, stained with 10% Giemsa solution, and counted using ImageJ software (National Institute of Health, USA). The results of invasion assay were analyzed as described in the migration assay.

Series [2] relates to RBE CCA cells. The series is described as follows: 24-hour transwell cell migration assay, RBE. The format is cell-based, human. On the procedure: (§4) We used 5×10^4 HuCCT1 and 1×10^5 RBE cells in the migration assay.
as §2, §3

The next series relates to MMP2. Nature of the series: immunohistochemistry of primary intrahepatic tumor, MMP2. The class given is in vivo. The settings on record: rat, 10 mg/kg oral daily. How it is done: (§5) The immunohistochemistry assay was performed as known in the art. Tissue slides were de-paraffined, re-hydrated, and then subjected to antigen-retrieval using the antigen unmasking solution (Vector Inc., H3300). The endogenous peroxidase activity was quenched with 3% H2O2 prepared in methanol. Tissues slides were further blocked with a 5% milk and BSA solution prepared in 1×PBST for 1 hour. The slides were incubated with ASPH, MMP2, and MMP14 antibodies prepared in with 3% BSA in PBS) overnight at 4° C. overnight. The slides were washed with 0.05% TBST three times and then incubated with 1:200 dilution of biotinylated secondary antibody (Vector Laboratories) and the ABC solution (Vector Laboratories) at 20° C. The slides were incubated with DAB substrate to detect positive staining. […] Images were taken using a Nikon microscope and analyzed with Image Pro Plus.
(§6) To evaluate whether compound 14c suppresses CCA metastasis in vivo, we performed experiments in a rat intrahepatic syngeneic CCA model by ligating the bile duct and inoculating rat BDE-neu-CL24 cells into the liver. We first determined that compound 14c inhibited BDE-neu-CL24 cells in vitro (FIG. 4A). […] The body weights were measured as a gross indicator of drug toxicity and were not affected compared to vehicle control (FIG. 7). The metastatic spread to the lung surface was determined (FIG. 4D).

The next series has as its system MMP14. The series is described as follows: immunohistochemistry of primary intrahepatic tumor, MMP14. The settings on record: rat, 10 mg/kg oral daily. The class given is in vivo. How it is done:
as §5, §6

In series [3] the test system is RBE CCA cells. Nature of the series: cell invasion assay, matrix-coated Boyden chamber transwell, RBE. The format is cell-based. The settings on record: Homo sapiens, 10 μM compound 14c, versus DMSO, read-out: inhibition of cell invasion capacity. How it is done:
as §2, §3

Series [4] deals with HuCCT1 CCA cells. Nature of the series: cell invasion assay, matrix-coated Boyden chamber transwell, HuCCT1. The class given is cell-based. The settings on record: Homo sapiens, HuCCT-1, 10 μM compound 14c, versus DMSO, read-out: inhibition of cell invasion capacity. On the procedure: as §2, §3
Series [5] in a line: body weights of experimental rats as gross indicator of drug toxicity. The note with it: rat, compound 14c 10 mg/kg, measured at the indicated experimental time points, n=8-10. The format is in vivo. On the procedure:
There was no difference between the control and experimental groups.
as §1, with “The rats were euthanized 18 days post-surgery with Isoflurane and cervical dislocation. Tumors were dissected away from the adjacent liver and weighed.” left out
as §6

The target of the next series is T1, ASPH (Homo sapiens, UniProt Q12797).
T1 sequence (Q12797 1-758): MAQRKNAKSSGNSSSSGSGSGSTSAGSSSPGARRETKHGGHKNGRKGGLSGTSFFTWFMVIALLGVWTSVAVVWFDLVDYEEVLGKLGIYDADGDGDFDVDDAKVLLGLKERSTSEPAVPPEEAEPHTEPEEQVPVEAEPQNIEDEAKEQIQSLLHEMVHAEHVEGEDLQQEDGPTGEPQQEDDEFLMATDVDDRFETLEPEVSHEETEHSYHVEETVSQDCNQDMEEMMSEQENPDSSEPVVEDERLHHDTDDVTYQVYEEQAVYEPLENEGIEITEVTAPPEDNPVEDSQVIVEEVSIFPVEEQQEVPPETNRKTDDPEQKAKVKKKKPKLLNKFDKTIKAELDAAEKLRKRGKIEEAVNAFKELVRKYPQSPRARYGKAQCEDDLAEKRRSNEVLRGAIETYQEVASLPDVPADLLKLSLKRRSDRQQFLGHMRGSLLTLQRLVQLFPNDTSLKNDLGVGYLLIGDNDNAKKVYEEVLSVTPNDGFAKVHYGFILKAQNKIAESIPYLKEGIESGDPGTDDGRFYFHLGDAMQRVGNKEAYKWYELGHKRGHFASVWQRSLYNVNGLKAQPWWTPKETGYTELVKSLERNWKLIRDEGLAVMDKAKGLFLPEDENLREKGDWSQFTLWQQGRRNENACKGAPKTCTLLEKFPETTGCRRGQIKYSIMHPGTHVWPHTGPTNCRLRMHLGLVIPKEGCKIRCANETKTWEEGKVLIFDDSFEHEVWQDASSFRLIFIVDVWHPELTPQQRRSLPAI
The series is described as follows: ASPH enzymatic (catalytic) activity. The class given is biochemical. The text has this: FIGS. 5A-5B show a scheme for measuring ASPH catalytic activity.

In series [6] the test system is HuCCT1 CCA cells. Nature of the series: 24-hour transwell cell migration assay, HuCCT1. The settings on record: 10 μM compound 14c, versus DMSO. The class given is cell-based, human. On the procedure: as §4, §2, §3
The next series is described as follows: water solubility. The format is physicochemical.
[7] abbreviates: listed as third generation ASPH inhibitor.

For the molecule `COC(=O)c1ccc(C2OC(N)=C(OS(=O)(=O)Cc3ccccc3)C2=O)cc1` (stereo not drawn) [compound 14c], the “effects on CCA progression as compared to compound 55 (FIG. 6A, weight of CCA tumors)” value in series [1] (rat CCA model, compound 14c 10 mg/kg i.p. 3 times per week versus compound 55 25 mg/kg i.p.) is recorded as “improved effects”. Moreover, the “CCA metastatic spread to the lung (metastatic nodules)” value in series [1] is recorded as “substantially decreased”; in series [1] (setting [7]), “suppressed”. The “inhibition of BDE-neu-CL24 cells in vitro (cell migration, FIG. 4A)” value with BDE-neu-CL24 cells is on record as “inhibited”. Moreover, the “reduction of cell migration” value in the series with RBE CCA cells [2] (10 μM compound 14c, 24-hour transwell, versus DMSO) is given as 70%; with HuCCT1 CCA cells [6] it was 50%. Besides, the “reduction of RBE CCA cell migration” value in the series with RBE CCA cells [2] (comparison of ASPH inhibitor generations, concentration not stated) was “approximately 70%”. In the series with MMP2, the “MMP2 protein expression in primary intrahepatic tumor” value was “significantly down-regulated”. For the same molecule, the “MMP14 protein expression in primary intrahepatic tumor” value in the series with MMP14 is given as “significantly down-regulated”. Moreover, the figures for the inhibition at 10 µM with RBE CCA cells [3] and in the series on HuCCT1 CCA cells [4] were 83% and 60%, respectively. Also, the “body weights compared to vehicle control” value in series [5] was “not affected; also recorded: no difference”. Moreover, the results for the “inhibitory effects on ASPH (enzymatic) activity compared to previous generations of ASPH SMIs” value against ASPH and against ASPH (setting [7]) were “improved” and “increased potency”, respectively. For the same molecule, the “water solubility compared to previous generations of ASPH SMIs” value in the series “water solubility” was “improved water solubility”; in “water solubility” (setting [7]), “more water soluble”.

On to `NC1=C(OS(=O)(=O)Cc2ccccc2)C(=O)C(c2ccc(C(F)(F)F)cc2)O1` (stereo not drawn) [compound 55, 2-(4-trifluoromethylphenyl)-4-[[phenylmethylsulfonyl]oxy]-5-amino-3(2H)-furanone], for which, in series [1] (rat model, 25 mg/kg, daily), the “anti-tumor effects on metastatic spread to the lung” value is recorded as “did not achieve satisfactory anti-tumor effects” and the “anti-tumor effects on primary tumor growth” value is recorded as “did not achieve satisfactory anti-tumor effects”.
